Read-outs that look alike come from different tables or passages of the source.
Key:
Format in all cases: biochemical
EphB3 kinase = biological target: T1, EphB3 kinase (Homo sapiens, UniProt P54753); assay: EphB3 kinase inhibition assay (HotSpot)
T1 construct: purchased Reaction Biology Co. (Kinase HotSpot service)
T1 sequence (P54753 34-998): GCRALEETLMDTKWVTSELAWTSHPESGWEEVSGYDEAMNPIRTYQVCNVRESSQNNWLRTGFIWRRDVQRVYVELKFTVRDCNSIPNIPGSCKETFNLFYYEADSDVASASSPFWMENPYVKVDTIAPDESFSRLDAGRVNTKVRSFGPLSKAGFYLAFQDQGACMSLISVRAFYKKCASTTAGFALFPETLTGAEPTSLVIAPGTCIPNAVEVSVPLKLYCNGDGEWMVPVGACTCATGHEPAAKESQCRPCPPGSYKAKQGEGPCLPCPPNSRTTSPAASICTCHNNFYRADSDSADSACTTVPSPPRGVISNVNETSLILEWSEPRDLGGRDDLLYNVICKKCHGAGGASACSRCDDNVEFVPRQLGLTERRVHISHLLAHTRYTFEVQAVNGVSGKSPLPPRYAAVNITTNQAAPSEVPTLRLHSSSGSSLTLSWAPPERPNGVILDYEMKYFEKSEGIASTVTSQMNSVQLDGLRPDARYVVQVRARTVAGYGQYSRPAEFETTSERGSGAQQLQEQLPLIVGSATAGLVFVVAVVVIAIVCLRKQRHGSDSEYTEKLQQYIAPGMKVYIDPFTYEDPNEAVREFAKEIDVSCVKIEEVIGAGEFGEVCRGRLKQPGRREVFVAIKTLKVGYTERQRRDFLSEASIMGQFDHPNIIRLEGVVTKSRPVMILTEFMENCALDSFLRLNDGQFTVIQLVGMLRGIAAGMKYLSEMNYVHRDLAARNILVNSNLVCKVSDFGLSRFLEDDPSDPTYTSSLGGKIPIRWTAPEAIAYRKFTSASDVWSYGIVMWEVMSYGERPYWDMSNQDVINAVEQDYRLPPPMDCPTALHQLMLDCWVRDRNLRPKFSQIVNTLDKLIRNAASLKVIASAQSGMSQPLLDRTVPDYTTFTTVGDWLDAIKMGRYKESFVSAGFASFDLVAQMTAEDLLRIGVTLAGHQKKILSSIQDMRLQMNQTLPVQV
Experimental: The synthesized compounds were subjected to in vitro screening over EphB3 kinase. A single dose of 10 µM concentration of each target compound was used in EphB3 kinase inhibition assay, at 10 µM ATP, applying HotSpot^SM technology.
(§1) The HotSpot assay platform contains specific kinase/substrate pairs along with required cofactors. Base reaction buffer: 20 mM Hepes (pH 7.5), 10 mM MgCl2, 1 mM EGTA, 0.02% Brij35, 0.02 mg/mL BSA, 0.1 mM Na3VO4, 2 mM DTT, 1% DMSO. The tested compounds were dissolved in 100% DMSO to specific concentration. The serial dilution was conducted by Integra Viaflo Assist in DMSO (Sigma-Aldrich, Burlington, MA, USA). The reaction mixture containing the examined compound and 33P-ATP was incubated at room temperature for 2 h, and radioactivity was detected by filter-binding method. Kinase activity data were expressed as the percent remaining kinase activity in test samples compared to vehicle (dimethyl sulfoxide) reactions. IC50 values and curve fits were obtained using Prism (GraphPad Software, San Diego, CA, USA).

EphB1 = biological target: T2, EphB1 (Homo sapiens, UniProt P54762); assay: Kinase panel assay, EphB1
T2 construct: purchased Reaction Biology Co. (Kinase HotSpot service)
T2 sequence (P54762 18-984): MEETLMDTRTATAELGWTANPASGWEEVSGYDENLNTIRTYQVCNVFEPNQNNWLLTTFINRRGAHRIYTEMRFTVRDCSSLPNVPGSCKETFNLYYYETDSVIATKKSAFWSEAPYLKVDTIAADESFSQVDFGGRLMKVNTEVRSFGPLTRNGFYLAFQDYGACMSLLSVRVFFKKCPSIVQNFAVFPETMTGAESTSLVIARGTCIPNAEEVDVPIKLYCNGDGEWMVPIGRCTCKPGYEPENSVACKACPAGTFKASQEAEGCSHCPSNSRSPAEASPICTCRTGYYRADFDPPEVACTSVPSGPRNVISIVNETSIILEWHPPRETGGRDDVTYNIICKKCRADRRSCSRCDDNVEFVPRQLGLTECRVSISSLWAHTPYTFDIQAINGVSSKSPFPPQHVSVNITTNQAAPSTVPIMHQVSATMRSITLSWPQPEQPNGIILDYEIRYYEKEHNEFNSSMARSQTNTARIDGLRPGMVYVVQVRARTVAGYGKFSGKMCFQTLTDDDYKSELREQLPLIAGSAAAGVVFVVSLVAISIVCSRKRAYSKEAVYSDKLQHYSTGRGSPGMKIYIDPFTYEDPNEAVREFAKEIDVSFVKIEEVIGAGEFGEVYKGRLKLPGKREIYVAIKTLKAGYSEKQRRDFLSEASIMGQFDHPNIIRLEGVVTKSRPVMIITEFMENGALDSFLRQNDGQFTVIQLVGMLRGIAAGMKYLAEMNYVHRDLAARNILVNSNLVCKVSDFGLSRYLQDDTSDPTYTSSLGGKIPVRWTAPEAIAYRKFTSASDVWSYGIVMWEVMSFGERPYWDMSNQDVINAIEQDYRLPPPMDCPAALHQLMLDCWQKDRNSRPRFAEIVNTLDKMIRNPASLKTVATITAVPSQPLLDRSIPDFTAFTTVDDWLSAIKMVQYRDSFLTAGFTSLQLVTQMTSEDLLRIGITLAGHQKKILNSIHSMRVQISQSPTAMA
Experimental: as §1

CDK2/cyclin A = biological target: T3, CDK2/cyclin A (Homo sapiens, UniProt P24941); assay: Kinase panel assay, CDK2/cyclin A; details: read-out: Average % Enzyme Inhibition (Relative to DMSO Controls) at 10 µM
T3 construct: purchased Reaction Biology Co. (Kinase HotSpot service)
Experimental: as §1, with “The screening of the tested compounds was performed using the Kinase HotSpot^SM service from Reaction Biology Co. (http://www.reactionbiology.com, accessed on 25 September 2021). The HotSpot” for “The HotSpot”

inhibition at 10 µM (EphB3 kinase; EphB3 kinase, 10 µM compound, 10 µM ATP, read-out: Average % Enzyme Inhibition at 10 µM (Relative to DMSO Control)): > 93%
IC50 (EphB3 kinase; EphB3 kinase, dose dependent assay, read-out: IC50): 1040 nM
IC50 (EphB3 kinase; EphB3 kinase, read-out: EC50 of the curve fit printed in Figure 5 (IC50 per legend)): 1040 nM
selectivity for EphB3 over EphB1 isoform (EphB3 kinase; from IC50 values, EphB3 over EphB1): six
inhibition at 10 µM (EphB1; EphB1, 10 µM, read-out: Average % Enzyme Inhibition (Relative to DMSO Controls) at 10 µM): 58.9 ± 1.98%
IC50 (EphB1; EphB1, dose-dependent assay): 5860 nM
inhibition at 10 µM (CDK2/cyclin A): 75 ± 2.07%
Compound: NS(=O)(=O)c1ccc(Nc2ncnc3ccc(-c4cccc(O)c4)cc23)cc1 [Compound 4c, 4-((6-(3-Hydroxyphenyl)quinazolin-4-yl)amino)benzenesulfonamide]

— PMC8708751, “Hit Identification of a Novel Quinazoline Sulfonamide as a Promising EphB3 Inhibitor: Design, Virtual Combinatorial Library, Synthesis, Biological Evaluation, and Docking Simulation Studies” (Pharmaceuticals, 2021)
